Assay results as given in patent publication US20010041676A1, “Glycosides and orthoester glycosides of glucocorticoids and uses thereof” (priority 2000, published 2001).
Like-named read-outs stand apart in the source and are kept apart here.

Tests used:
in vivo = details: rat, serum, 20 mg
Description: (§1) 1 ml of rat serum was introduced into Varian-abselut (3 ml) cartridge (Part number SP12103100; analytical sample preparation and solid phase extraction use cartridge). Suction was applied and the cartridge was washed with 3 ml of water followed by 2 ml of water. The cartridges were dried under suction for 5 minutes and a jet stream of argon was blown to dry the trace amounts of water. The cartridge was washed once with 3 ml of hexane and the steroidal portion was eluted with 5 ml of methanol. The methanol portion was dried under nitrogen. The dried extract, which contains prednisolone or the glucoside, was constituted with 300 μl of ethyl acetate-methanol mixture (290 μl of ethyl acetate and 10 μl of methanol). 100 μl injections were made using manual injections in the HPLC instrument.
(§2) Hewlett Packard-Agilent 1100 series instrument with UV detector G1315A and a manual injector with a 100 μL loop were used in the assay.
(§3) The solvents used in the elution were a mixture of methanol (2 parts), ethyl acetate (42 parts) and hexane (56 parts). The mixture was run at a flow rate of 1 ml per minute.
(§4) The serum prednisolone and prednisolone glucoside levels were assessed from the animals dosed with either 20 mg of prednisolone or 29 mg of prednisolone glucoside (20 mg equivalent). The animals were sacrificed after 30 minutes and 60 minutes.
(§5) The serum prednisolone levels were calculated based upon the HPLC analyses of prednisolone and prednisolone glucoside. These values are calculated based upon the mAU and area values calculated against the standards.

[1] = rat serum; for Serum prednisolone-glycoside: prednisolone-glucoside group (29 mg); for Serum Prednisolone: prednisolone-glucoside group (29 mg, 20 mg equivalent)
Description: as §1, §2, §3, §4, §5

[2] = pH 1.0, 20 mg/ml, room temperature, up to 72 hours
Description: The acid stability of prednisolone glucoside was qualitatively assessed by thin layer chromatography (TLC).
Prednisolone glucoside was suspended in pH 1.0 (freshly prepared from 10 M HCl solution) at a concentration of 20 mg/ml and stirred as a turbid solution at room temperature for 72 hours. At 24 and 48 hours, 100 μl aliquots were removed and diluted with about 200 μl of methanol to make a homogeneous solution. Approximately 50 μl was applied to a TLC plate (Sigma-Aldrich #Z 29298-2, made by Merck—silica TLC plates) with several repeated small applications. As controls, standard applications of 10 μg of fresh prednisolone glucoside, dissolved in 100 μl of methanol, and about 10 μg of prednisolone, in 50 μl of methanol, were applied at separate spots. Several repeated small applications were used to minimize the size of applied spot.
The TLC plates were initially eluted with ethyl acetate and then illuminated with the Aldrich's hand held model UV source (short UV light source used, Spectroline #1281657). The TLC plates were then dried, reeluted with methanol and then illuminated again with the UV source.

| concentration at 30 min (in vivo) [ng/mL] | concentration at 60 min (in vivo) [ng/mL] | Compound | Serum prednisolone-glycoside ([1]; 30 mins) [ng/mL] | Serum prednisolone-glycoside ([1]; 60 mins) [ng/mL] | Serum Prednisolone ([1]; 30 mins) [ng/mL] | Serum Prednisolone ([1]; 60 mins) [ng/mL] | Acid stability (qualitative, TLC) [2] |
| --- | --- | --- | --- | --- | --- | --- | --- |
| 350 | 156 | C[C@]12C=CC(=O)C=C1CC[C@@H]1[C@@H]2[C@@H](O)C[C@@]2(C)[C@H]1CC[C@]2(O)C(=O)CO [Prednisolone, prednisolone] | – | – | – | – | – |
| – | – | C[C@]12C=CC(=O)C=C1CC[C@@H]1[C@@H]2[C@@H](O)C[C@@]2(C)[C@H]1CC[C@]2(O)C(=O)CO[C@@H]1O[C@H](CO)[C@@H](O)[C@H](O)[C@H]1O [Prednisolone-glucoside, 1,4-pregnadiene-11β-17α-diol-21-O-1′-β′-glucopyranosyl-3,20-dione] | 639 | 0 | 861 | 349.5 | stable |
